Test results taken from ChEMBL document CHEMBL1201862, “PubChem BioAssay data set” (2004).
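How tested: cells in 96-well plates exposed to compound for 48 hours at five concentrations. GI50 = concentration required for 50% inhibition of growth.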 Calls of active or inactive are those of the source. No stated cut-off is given here; in the data, active = GI50 up to about 1.1 µM and inactive = higher.

Tests used:
Assay in all cases: NCI-60 cell line screen, 48 h
786-0 = system: 786-0
A549 = system: A549
ACHN = system: ACHN
BT-549 = system: BT-549
CAKI-1 = system: CAKI-1
CCRF-CEM = system: CCRF-CEM
COLO 205 = system: COLO 205
DU-145 = system: DU-145
EKVX = system: EKVX
HCC 2998 = system: HCC 2998
HCT-116 = system: HCT-116
HCT-15 = system: HCT-15
HL-60 = system: HL-60
HT-29 = system: HT-29
Hs-578T = system: Hs-578T
IGROV-1 = system: IGROV-1
K562 = system: K562
KM12 = system: KM12
LOX IMVI = system: LOX IMVI
M14 = system: M14
MCF7 = system: MCF7
MDA-MB-435 = system: MDA-MB-435
MDA-N = system: MDA-N
MOLT-4 = system: MOLT-4
Malme-3M = system: Malme-3M
NCI-H226 = system: NCI-H226
NCI-H23 = system: NCI-H23
NCI-H460 = system: NCI-H460
NCI-H522 = system: NCI-H522
OVCAR-3 = system: OVCAR-3
OVCAR-4 = system: OVCAR-4
OVCAR-5 = system: OVCAR-5
OVCAR-8 = system: OVCAR-8
PC-3 = system: PC-3
RPMI-8226 = system: RPMI-8226
RXF 393 = system: RXF 393
SF-295 = system: SF-295
SF-539 = system: SF-539
SK-MEL-2 = system: SK-MEL-2
SK-MEL-5 = system: SK-MEL-5
SK-OV-3 = system: SK-OV-3
SN12C = system: SN12C
SNB-19 = system: SNB-19
SNB-75 = system: SNB-75
SR = system: SR
SW-620 = system: SW-620
T47D = system: T47D
TK-10 = system: TK-10
U-251 = system: U-251
UACC-62 = system: UACC-62
A498 = system: A498
HOP-62 = system: HOP-62
MDA-MB-231 = system: MDA-MB-231
NCI/ADR-RES = system: NCI/ADR-RES
SF-268 = system: SF-268
SK-MEL-28 = system: SK-MEL-28
UACC-257 = system: UACC-257
UO-31 = system: UO-31
HOP-92 = system: HOP-92

For `COc1cc2c(c(OC)c1OC)-c1ccc(SC)cc1C(=O)CC2`, the GI50 (786-0) was < 0.01 µM (active), the GI50 (A549) was < 0.01 µM (active) and the GI50 (ACHN) was < 0.01 µM (active). For the same compound, the GI50 (BT-549) was > 100 µM (inactive), the GI50 (CAKI-1) was < 0.0227 µM (active) and the GI50 (CCRF-CEM) was < 0.01 µM (active). For the same compound, the GI50 (COLO 205) was < 0.01 µM (active), the GI50 (DU-145) was < 0.01 µM (active) and the GI50 (EKVX) was < 0.0382 µM (active). For the same compound, the GI50 (HCC 2998) was < 0.01 µM (active), the GI50 (HCT-116) was < 0.01 µM (active) and the GI50 (HCT-15) was under 0.01 µM. For the same compound, the GI50 (HL-60) was < 0.01 µM (active), the GI50 (HT-29) was < 0.01 µM (active) and the GI50 (Hs-578T) was < 0.01 µM (active). For the same compound, the GI50 (IGROV-1) was < 0.01 µM (active), the GI50 (K562) was < 0.01 µM (active) and the GI50 (KM12) was < 0.01 µM (active). For the same compound, the GI50 (LOX IMVI) was < 0.01 µM (active), the GI50 (M14) was < 0.01 µM (active) and the GI50 (MCF7) was < 0.01 µM (active). The GI50 (MDA-MB-435) was < 0.01 µM (active), the GI50 (MDA-N) was 0.0243 µM (active) and the GI50 (MOLT-4) was < 0.01 µM (active). The GI50 (Malme-3M) was < 0.01 µM (active), the GI50 (NCI-H226) was < 0.01 µM (active) and the GI50 (NCI-H23) was < 0.01 µM (active). For the same compound, the GI50 (NCI-H460) was < 0.01 µM (active), the GI50 (NCI-H522) was < 0.01 µM (active) and the GI50 (OVCAR-3) was < 0.01 µM (active). For the same compound, the GI50 (OVCAR-4) was 7.76 µM (inactive), the GI50 (OVCAR-5) was > 100 µM (inactive) and the GI50 (OVCAR-8) was < 0.01 µM (active). For the same compound, the GI50 (PC-3) was < 0.01 µM (active), the GI50 (RPMI-8226) was < 0.01 µM (active) and the GI50 (RXF 393) was 66.8 µM (inactive). The GI50 (SF-295) was < 0.01 µM (active), the GI50 (SF-539) was < 0.01 µM (active) and the GI50 (SK-MEL-2) was > 100 µM (inactive). For the same compound, the GI50 (SK-MEL-5) was < 0.01 µM (active), the GI50 (SK-OV-3) was < 0.01 µM (active) and the GI50 (SN12C) was < 0.0421 µM (active). For the same compound, the GI50 (SNB-19) was < 0.01 µM (active), the GI50 (SNB-75) was 1 µM (active) and the GI50 (SR) was < 0.0213 µM (active). The GI50 (SW-620) was < 0.0228 µM (active), the GI50 (T47D) was > 100 µM (inactive) and the GI50 (TK-10) was > 100 µM (inactive). The GI50 (U-251) was < 0.01 µM (active) and the GI50 (UACC-62) was < 0.01 µM (active).

For `CN(Cc1cccc2ccccc12)Cc1cccc2ccccc12`, the GI50 (786-0) was 37.8 µM (inactive), the GI50 (A498) was 28.8 µM (inactive) and the GI50 (A549) was 34 µM (inactive). The GI50 (ACHN) was 37.6 µM (inactive), the GI50 (BT-549) was 56.4 µM (inactive) and the GI50 (CAKI-1) was 50.1 µM (inactive). The GI50 (CCRF-CEM) was 16.6 µM (inactive), the GI50 (COLO 205) was 17.8 µM (inactive) and the GI50 (DU-145) was 54 µM (inactive). For the same compound, the GI50 (EKVX) was 37.5 µM (inactive), the GI50 (HCC 2998) was 22.7 µM (inactive) and the GI50 (HCT-116) was 13.4 µM (inactive). For the same compound, the GI50 (HCT-15) was 22.2 µM, the GI50 (HL-60) was 13.4 µM (inactive) and the GI50 (HOP-62) was 45.6 µM (inactive). The GI50 (HT-29) was 15.4 µM (inactive), the GI50 (Hs-578T) was 44.3 µM (inactive) and the GI50 (IGROV-1) was 32.2 µM (inactive). The GI50 (K562) was 35.1 µM (inactive), the GI50 (KM12) was 41.5 µM (inactive) and the GI50 (LOX IMVI) was 34.3 µM (inactive). For the same compound, the GI50 (M14) was 27.5 µM (inactive), the GI50 (MCF7) was 20.7 µM (inactive) and the GI50 (MDA-MB-231) was 21.8 µM (inactive). The GI50 (MDA-MB-435) was 35.7 µM (inactive), the GI50 (MOLT-4) was 15.3 µM (inactive) and the GI50 (Malme-3M) was 20 µM (inactive). For the same compound, the GI50 (NCI-H226) was 30.9 µM (inactive), the GI50 (NCI-H23) was 26.6 µM (inactive) and the GI50 (NCI-H460) was 40.6 µM (inactive). For the same compound, the GI50 (NCI-H522) was 19 µM (inactive), the GI50 (NCI/ADR-RES) was 47.5 µM (inactive) and the GI50 (OVCAR-3) was 44.4 µM (inactive). For the same compound, the GI50 (OVCAR-4) was 36.1 µM (inactive), the GI50 (OVCAR-5) was 43 µM (inactive) and the GI50 (OVCAR-8) was 70.5 µM (inactive). The GI50 (PC-3) was 24 µM (inactive), the GI50 (RPMI-8226) was 22.6 µM (inactive) and the GI50 (RXF 393) was 47.1 µM (inactive). For the same compound, the GI50 (SF-268) was 41.6 µM (inactive), the GI50 (SF-295) was 26.7 µM (inactive) and the GI50 (SF-539) was 23.8 µM (inactive). The GI50 (SK-MEL-28) was 35.2 µM (inactive), the GI50 (SK-MEL-2) was 14.1 µM (inactive) and the GI50 (SK-MEL-5) was 18.5 µM (inactive). For the same compound, the GI50 (SK-OV-3) was 65.6 µM (inactive), the GI50 (SN12C) was 36.6 µM (inactive) and the GI50 (SNB-19) was 52.7 µM (inactive). For the same compound, the GI50 (SNB-75) was 46.1 µM (inactive), the GI50 (SR) was 30.8 µM (inactive) and the GI50 (SW-620) was 20.6 µM (inactive). The GI50 (T47D) was 21 µM (inactive), the GI50 (TK-10) was > 100 µM (inactive) and the GI50 (U-251) was 22.6 µM (inactive). For the same compound, the GI50 (UACC-257) was 50.1 µM (inactive), the GI50 (UACC-62) was 67.5 µM (inactive) and the GI50 (UO-31) was 36.6 µM (inactive).

For `COc1ccc(N2C(=O)/C(=C\c3ccccc3)SC2c2cc(OC)c(OC)c(OC)c2)cc1` (configuration not stated), the GI50 (A498) was 73.8 µM (inactive), the GI50 (A549) was > 100 µM (inactive) and the GI50 (ACHN) was 60.3 µM (inactive). For the same compound, the GI50 (BT-549) was > 100 µM (inactive), the GI50 (CAKI-1) was 46.8 µM (inactive) and the GI50 (CCRF-CEM) was 10.7 µM (inactive). The GI50 (COLO 205) was 74.1 µM (inactive), the GI50 (EKVX) was 15 µM (inactive) and the GI50 (HCC 2998) was > 100 µM (inactive). The GI50 (HCT-116) was 32.1 µM (inactive), the GI50 (HCT-15) was over 100 µM and the GI50 (HOP-62) was 65.8 µM (inactive). For the same compound, the GI50 (HOP-92) was > 100 µM (inactive), the GI50 (HT-29) was 96.6 µM (inactive) and the GI50 (Hs-578T) was 84.5 µM (inactive). For the same compound, the GI50 (K562) was 28.5 µM (inactive), the GI50 (KM12) was 44.3 µM (inactive) and the GI50 (LOX IMVI) was 56.9 µM (inactive). For the same compound, the GI50 (M14) was 28.5 µM (inactive), the GI50 (MCF7) was 38.4 µM (inactive) and the GI50 (MDA-MB-231) was 88.5 µM (inactive). The GI50 (MDA-MB-435) was 20 µM (inactive), the GI50 (MDA-N) was 16.9 µM (inactive) and the GI50 (MOLT-4) was 65.6 µM (inactive). The GI50 (Malme-3M) was > 100 µM (inactive), the GI50 (NCI-H226) was > 100 µM (inactive) and the GI50 (NCI-H23) was 92.7 µM (inactive). The GI50 (NCI-H522) was 14.2 µM (inactive), the GI50 (NCI/ADR-RES) was > 100 µM (inactive) and the GI50 (OVCAR-4) was 82.4 µM (inactive). The GI50 (OVCAR-5) was > 100 µM (inactive), the GI50 (OVCAR-8) was > 100 µM (inactive) and the GI50 (PC-3) was 39.2 µM (inactive). For the same compound, the GI50 (RXF 393) was 31.3 µM (inactive), the GI50 (SF-268) was > 100 µM (inactive) and the GI50 (SF-295) was > 100 µM (inactive). For the same compound, the GI50 (SK-MEL-28) was > 100 µM (inactive), the GI50 (SK-MEL-2) was 30.4 µM (inactive) and the GI50 (SK-MEL-5) was 48.4 µM (inactive). The GI50 (SK-OV-3) was 48.9 µM (inactive), the GI50 (SN12C) was > 100 µM (inactive) and the GI50 (SNB-19) was > 100 µM (inactive). The GI50 (SNB-75) was 8.05 µM (inactive), the GI50 (SR) was 29.9 µM (inactive) and the GI50 (T47D) was 20.1 µM (inactive). The GI50 (TK-10) was > 100 µM (inactive), the GI50 (U-251) was 43.9 µM (inactive) and the GI50 (UACC-257) was > 100 µM (inactive). For the same compound, the GI50 (UACC-62) was 52.5 µM (inactive) and the GI50 (UO-31) was 50.4 µM (inactive).
